Numbered stars: 1 amine (or outer) side, 2 acyl side, 3 side chain; on linkers, the order of the positions; unused ones are H or OH. Bridge positions count the residues as written; N and C are the ends. Square brackets hold non-standard residues; d marks the D form. Peptide text beside a SMILES is read from it. * marks the point of attachment. Ala(piperidin-4-yl) = O=C([C@H](CC1CCN([*:3])CC1)N[*:1])[*:2]; DOTA = O=C(O)CN1CCN(CC(=O)O)CCN(CC(=O)*)CCN(CC(=O)O)CC1; Phe(4-CF3) = N[C@@H](Cc1ccc(C(F)(F)F)cc1)C(=O)O; Trp(5-F) = N[C@@H](Cc1c[nH]c2ccc(F)cc12)C(=O)O; Trp(7-aza) = N[C@@H](Cc1c[nH]c2ncccc12)C(=O)O; Pro(trans-4-F) = O=C(O)[C@@H]1C[C@@H](F)CN1; 2Nal = N[C@@H](Cc1ccc2ccccc2c1)C(=O)O; Nva(3-Et) = CCC(CC)[C@H](N)C(=O)O; 3Pal = N[C@@H](Cc1cccnc1)C(=O)O; 4Pal = N[C@@H](Cc1ccncc1)C(=O)O
T1: human DLL3 (Homo sapiens, UniProt Q9NYJ7)
T1 sequence (Q9NYJ7 27-618): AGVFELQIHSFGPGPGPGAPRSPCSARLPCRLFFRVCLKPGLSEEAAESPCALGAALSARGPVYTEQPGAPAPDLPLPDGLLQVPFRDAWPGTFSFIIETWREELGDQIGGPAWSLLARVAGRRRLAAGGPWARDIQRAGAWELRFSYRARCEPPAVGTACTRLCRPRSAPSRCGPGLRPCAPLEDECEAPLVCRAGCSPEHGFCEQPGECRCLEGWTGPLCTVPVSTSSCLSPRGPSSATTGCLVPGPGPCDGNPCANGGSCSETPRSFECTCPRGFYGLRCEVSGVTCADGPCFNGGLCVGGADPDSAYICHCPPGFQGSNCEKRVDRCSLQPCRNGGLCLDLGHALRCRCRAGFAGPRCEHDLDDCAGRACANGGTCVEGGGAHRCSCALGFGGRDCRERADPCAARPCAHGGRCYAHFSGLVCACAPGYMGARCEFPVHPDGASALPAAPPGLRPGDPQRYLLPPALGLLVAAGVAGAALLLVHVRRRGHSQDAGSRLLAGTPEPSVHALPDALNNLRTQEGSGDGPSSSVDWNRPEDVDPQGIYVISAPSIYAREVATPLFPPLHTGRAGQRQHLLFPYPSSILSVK

T2: DLL3 on SHP-77 cells (human, UniProt Q9NYJ7 27-618)
T2 construct: SHP-77 cells are human-derived, non-engineered SCLC cells
T2 sequence: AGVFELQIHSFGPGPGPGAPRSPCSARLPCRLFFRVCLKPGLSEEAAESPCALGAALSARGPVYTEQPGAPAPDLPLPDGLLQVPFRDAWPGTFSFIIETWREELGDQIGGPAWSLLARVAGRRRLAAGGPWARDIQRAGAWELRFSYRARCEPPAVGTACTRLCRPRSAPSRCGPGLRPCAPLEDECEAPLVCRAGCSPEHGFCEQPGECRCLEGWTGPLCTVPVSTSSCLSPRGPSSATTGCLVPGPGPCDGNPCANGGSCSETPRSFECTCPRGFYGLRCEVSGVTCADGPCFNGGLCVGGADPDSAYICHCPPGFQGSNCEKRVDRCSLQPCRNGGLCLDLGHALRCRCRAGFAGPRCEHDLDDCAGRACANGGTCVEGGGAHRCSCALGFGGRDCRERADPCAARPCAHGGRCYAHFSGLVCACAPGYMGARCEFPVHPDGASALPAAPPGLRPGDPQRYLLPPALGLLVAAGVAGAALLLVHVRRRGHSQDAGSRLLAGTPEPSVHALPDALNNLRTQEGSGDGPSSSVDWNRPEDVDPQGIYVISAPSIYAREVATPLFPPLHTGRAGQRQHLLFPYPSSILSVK

T3: DLL3 on CT26.DLL3 cells (Homo sapiens (Human), UniProt Q9NYJ7 27-618)
T3 construct: CT26.DLL3 are engineered cells to express DLL3
T3 sequence: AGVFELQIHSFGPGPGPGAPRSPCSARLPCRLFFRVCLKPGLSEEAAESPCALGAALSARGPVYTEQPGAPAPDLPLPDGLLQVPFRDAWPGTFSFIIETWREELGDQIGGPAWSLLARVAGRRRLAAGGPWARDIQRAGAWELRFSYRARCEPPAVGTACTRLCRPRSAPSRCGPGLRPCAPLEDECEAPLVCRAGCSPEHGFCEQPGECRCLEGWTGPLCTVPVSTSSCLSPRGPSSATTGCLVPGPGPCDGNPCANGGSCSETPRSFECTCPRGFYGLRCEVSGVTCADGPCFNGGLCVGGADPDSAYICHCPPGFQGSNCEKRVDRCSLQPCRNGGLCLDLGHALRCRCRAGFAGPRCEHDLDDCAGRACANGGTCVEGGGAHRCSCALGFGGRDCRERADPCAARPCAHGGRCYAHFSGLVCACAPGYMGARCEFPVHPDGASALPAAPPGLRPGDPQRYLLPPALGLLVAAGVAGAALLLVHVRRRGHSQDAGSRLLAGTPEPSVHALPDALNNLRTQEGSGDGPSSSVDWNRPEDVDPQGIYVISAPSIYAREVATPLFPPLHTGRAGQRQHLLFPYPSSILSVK


Legend:
CT26.DLL3 cells [1] = test: Cell binding (total uptake) of [177Lu]Lu-test peptide, CT26.DLL3 cells; assay type: cell-based; settings: 1 hour at 37° C.
Description: (§1) [^177Lu]LuCl3 was received from venders in HCl solution. For every mCi of [^177Lu]LuCl3 added to the reaction vial (1.5 mL Eppendorf vial), ammonium acetate buffer (0.2 M, pH 4.9, 100 μL, containing 1% w/v ascorbic acid and 6% v/v ethanol) and peptide conjugate (1 nmol). A peptide conjugate of the present disclosure is also referred to herein as a “chelator-peptide”. The pH of the solution was determined to be approximately 5 by using pH strips. The reaction vial was incubated at 80° C., 700 RPM for 17-20 minutes. A sample from the reaction was analyzed by RP-HPLC using an Agilent Infinity II 1260 HPLC to determine reaction completion and radiochemical purity of [^177Lu]Lu-chelator-peptide. HPLC conditions: Waters XBridge BEH C18 Column, 130 Å, 3.5 um, 4.6 mm×250 mm; mobile phase: Solvent A=water (with 0.1% formic acid), solvent B=acetonitrile (with 0.1% formic acid). Gradients: 25-45% B in 10 minutes, 45-65% B in 12 minutes, 65-90% in 6 minutes at a flow rate of 0.5 mL/minute. Required amounts of the product was formulated in 1% PBSA for cell studies.
(§2) The study was conducted using SHP-77, CT26.WT, and CT26.DLL3 cells (Table 7) Adherent cell studies: The cells were cultured in appropriate culture media (20 mL) in tissue culture treated T150 flasks at 37° C. and 5% CO2. Adherent cells were detached (60-70% confluent) using 5 mL Versene at 37° C. for 3 minutes. After confirming the viability using countess and count of detached cells using Trypan blue, the cells were centrifuged at 4° C. for 5 minutes (1,000 rpm). The cell pellet obtained was washed once with PBS and resuspended in 1% PBSA to obtain the desired cell concentration (5-25 million cells/mL).
(§3) Cell numbers used for the assay were in the range of 5 million cells/condition −25 million cells/condition.
(§4) Total uptake: Cells were incubated with 300 μL (0.8 μCi) of the incubation buffer (containing radiolabeled peptide [^177Lu] Lu-test peptide) for 1 hour at 37° C. (Table 8). Post incubation, the cells were pelleted and washed 2 times using cold PBS+1% BSA. The supernatant and washes were combined and counted together as “unbound fraction” in a gamma counter. The cells were then resuspended in 300 μL of 1% PBS+1% BSA and counted in the gamma counter as “bound fraction”.
(§5) In these Tables, “A” represents %≤25; “B” represents 25<%≤50; “C” represents %>50.

SHP-77 tumors = test: Ex vivo biodistribution of radiolabeled peptides in nude mice bearing SHP-77 tumors; settings: [177Lu]Lu labelling, nude mice bearing SHP-77 tumors (n = 3), 24 hours post-injection
Description: Mice were intravenously injected (via the lateral tail vein) with a bolus dose of the radiolabeled peptides for ex vivo biodistribution studies when tumor volumes were in range of 200-400 mm^3 for xenograft mice and when age of the mice was 5-7 weeks for tumor naïve mice studies. To assess the amount of radionuclide injected into individual mice the syringe was assayed in a dose calibrator before and after injection for [^177Lu]Lu-peptide.
Mice were euthanized at pre-determined time points and selected tissues were resected and collected into pre-weighed tubes. The tubes were then reweighed post resection, the difference giving the weight of each tissue. Radioactivity in each tissue was measured using a gamma counter. Counts were decay corrected to the time of injection and percentage of injected activity per gram (% IA/g) was calculated for each tissue based on the injected activity into each individual mouse. Injected activity was converted to counts based on the sensitivity of the gamma counter. The counts in tissue were then converted to the percentage of injected activity and this was divided by the mass of tissue to give % IA/g.

CT26.DLL3 cells [2] = test: Internalization (out of bound fraction) of [177Lu]Lu-test peptide, CT26.DLL3 cells; assay type: cell-based; settings: 1 hour at 37° C., glycine pH 2.5 wash
Description: as §1, §2, §3, §4
Internalization: The resuspended cells in 300 μl of 1% PBSA and counted in the gamma counter as “bound fraction” were collected in 1.5 mL Eppendorf tube and pelleted. The pelleted cells were incubated with 300 μl of 50 mM Glycine pH=2.5 for 3 minutes and then pelleted discarding the supernatant. This process was repeated one more time. The pelleted cells were washed with 300 μl of cold 1% PBSA and then resuspended in 300 μl 0.3M NaOH. This was counted in the gamma counter as “internalized fraction”.
as §5

human DLL3 = biological target: T1, human DLL3; test: Affinity determination by Surface Plasmon Resonance (SPR); assay type: binding; settings: 25° C., biotinylated human DLL3 immobilized on streptavidin sensor chip, 1:1 binding model; read-out: SPR KD
Method in brief: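 Kinetic and affinity constants were derived by fitting sensorgrams to a 1:1 binding model. Graded compound concentrations flowed at 100 μL/minute in 20 mM phosphate running buffer with 2% DMSO over streptavidin-immobilized biotinylated human DLL3, reference-subtracted.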

DLL3 on SHP-77 cells = biological target: T2, DLL3 on SHP-77 cells; test: 177Lu-peptide bound to SHP-77 cells, gamma counting; letter grade, key in paragraph 629
Description: as §2
(§6) Total uptake: Cells were incubated with 300 μL (0.8 μCi) of the incubation buffer (containing radiolabeled peptide [¹⁷⁷Lu] Lu-test peptide) for 1 hour at 37° C. (Table 8). Post incubation, the cells were pelleted and washed 2 times using cold PBS+1% BSA. The supernatant and washes were combined and counted together as “unbound fraction” in a gamma counter. The cells were then resuspended in 300 μL of 1% PBS+1% BSA and counted in the gamma counter as “bound fraction”.

DLL3 on CT26.DLL3 cells = biological target: T3, DLL3 on CT26.DLL3 cells; test: 177Lu-peptide bound to CT26.DLL3 cells, gamma counting; letter grade, key in paragraph 629
Description: as §2, §6

Molecule | % Binding (CT26.DLL3 cells [1]) | kidney uptake (% IA/g) (SHP-77 tumors) | tumor uptake (% IA/g) (SHP-77 tumors) | % Internalization (out of bound fraction) (CT26.DLL3 cells [2]) | Kd (human DLL3) | % Binding (DLL3 on SHP-77 cells) | % Binding (DLL3 on CT26.DLL3 cells)
CC[C@H](C)[C@H](NC(=O)[C@@H](NC(=O)[C@H](Cc1c[nH]c2ccccc12)NC(C)=O)[C@@H](C)O)C(=O)N[C@H]1CSSC[C@@H](C(=O)N[C@@H](Cc2c[nH]c3ccccc23)C(=O)N2CCC[C@H]2C(=O)N[C@H](CCCCNC(=O)CN2CCN(CC(=O)O)CCN(CC(=O)O)CCN(CC(=O)O)CC2)C(N)=O)NC(=O)[C@H](CC(=O)O)NC(=O)[C@H](Cc2cnc[nH]2)NC(=O)[C@H](Cc2ccc3ccccc3c2)NC(=O)[C@H](Cc2ccncc2)NC(=O)[C@H](CC(N)=O)NC1=O [compound 266, Ac-W-T-I-C(3)-N-(4Pya)-(2Nal)-H-D-C(3)-W-P-[D-Lys(DOTA)]-NH2] (Ac-WTICN[4Pal][2Nal]HDCWP[dK](DOTA)-NH2; disulfide 4-10) | A (%≤25) | C (0 < % IA/g ≤ 10 in kidney) | A (0 < % IA/g ≤ 5 in tumor) | A (%≤25) | < 1 nM | – | –
CC[C@H](C)[C@H](NC(=O)[C@@H](NC(=O)[C@H](Cc1c[nH]c2ccccc12)NC(C)=O)[C@@H](C)O)C(=O)N[C@H]1CSSC[C@@H](C(=O)N[C@@H](Cc2c[nH]c3ccccc23)C(=O)N2CCC[C@H]2C(=O)N[C@H](CCCCNC(=O)CN2CCN(CC(=O)O)CCN(CC(=O)O)CCN(CC(=O)O)CC2)C(N)=O)NC(=O)[C@H](CC(=O)O)NC(=O)[C@H](Cc2cnc[nH]2)NC(=O)[C@H](Cc2ccc3ccccc3c2)NC(=O)[C@H](CC2CCNCC2)NC(=O)[C@H](CC(N)=O)NC1=O [compound 267, Ac-W-T-I-C(3)-N-[3-(4-piperidinyl)-Ala]-(2Nal)-H-D-C(3)-W-P-[D-Lys(DOTA)]-NH2] (Ac-WTICN[Ala(piperidin-4-yl)][2Nal]HDCWP[dK](DOTA)-NH2; disulfide 4-10) | A (%≤25) | C (0 < % IA/g ≤ 10 in kidney) | A (0 < % IA/g ≤ 5 in tumor) | B (25<%≤50) | < 1 nM | – | –
Ac-(5Fluoro-W)-T-(CHA)-C(3)-N-N-(2Nal)-H-D-C(3)-(7Aza-W)-(trans4Fluoro-P)-[D-Lys(DOTA)]-NH2 [compound 245] | A (%≤25) | D (% IA/g > 10 in kidney) | A (0 < % IA/g ≤ 5 in tumor) | B (25<%≤50) | < 1 nM | – | –
Ac-[Trp(5-F)]T[Nva(3-Et)]CNN[Phe(4-CF3)]HDC[Trp(7-aza)][Pro(trans-4-F)][dK](DOTA)-NH2 (disulfide 4-10; also: 177Lu complexed in the DOTA chelator) [[177Lu]Lu-labelled Cpd No. 146] | – | – | – | – | – | < 25% | –
Ac-WTIC[3Pal]N[2Nal]HDCWP[dK](DOTA)-NH2 (disulfide 4-10; also: 177Lu in the DOTA chelator, also called [177Lu]Lu-test peptide) [[177Lu]Lu-labelled Cpd No. 263] | – | – | – | – | – | – | ≤ 25%
Ac-WTIC[4Pal]N[2Nal]HDCWP[dK](DOTA)-NH2 (disulfide 4-10; also: 177Lu in the DOTA chelator, also called [177Lu]Lu-test peptide) [[177Lu]Lu-labelled Cpd No. 264] | – | – | – | – | – | – | ≤ 25%
Ac-WTICNNWHDCWP[dK](DOTA)-NH2 (disulfide 4-10; also: 177Lu chelated in DOTA, also called [177Lu]Lu-test peptide) [[177Lu]Lu-labelled Cpd No. 23] | – | – | – | – | – | ≤ 25% | ≤ 25%

Source: US20250011368A1, “DLL3 TARGETING PEPTIDES AND CONSTRUCTS THEREOF” (MARIANA ONCOLOGY INC., priority 2023, published 2025)
